Columns and labels:
NKG2A−/NKG2C+ NK cells [1] = experiment: NK cell activation markers in NKG2A-/NKG2C+ NK cells incubated with peptide and K562 expressing HLA-E (activation); assay type: cell-based, human; settings: for percentage of CCL3+ NK cells / percentage of CD107+ NK cells / percentage of IFNG+ NK cells / percentage of TNF+ NK cells: NKG2A-/NKG2C+ NK cells, K562/HLA-E
Method in brief: (§1)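 Percent of NK cells positive for cell-surface markers was measured after exposure to K562 targets expressing HLA-E and loaded with human- or HCMV-proteome-derived peptides. A decrease means inhibition, an increase activation; NKG2A−/NKG2C− cells served as controls.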

HLA-E = molecular target: T1, HLA-E (Homo sapiens, UniProt P13747); experiment: HLA-E surface stabilization assay with RMA-S/HLA-E cells; assay type: cell-based; settings: 30 μM peptide, 16 hours; for HLA-E surface expression stability (GeoMFI): anti-HLA-E antibody
T1 construct: expressed in transfected cells; host or cells: RMA-S/HLA-E cells (antigen processing-defective lymphoma cell line)
T1 sequence (P13747 22-358): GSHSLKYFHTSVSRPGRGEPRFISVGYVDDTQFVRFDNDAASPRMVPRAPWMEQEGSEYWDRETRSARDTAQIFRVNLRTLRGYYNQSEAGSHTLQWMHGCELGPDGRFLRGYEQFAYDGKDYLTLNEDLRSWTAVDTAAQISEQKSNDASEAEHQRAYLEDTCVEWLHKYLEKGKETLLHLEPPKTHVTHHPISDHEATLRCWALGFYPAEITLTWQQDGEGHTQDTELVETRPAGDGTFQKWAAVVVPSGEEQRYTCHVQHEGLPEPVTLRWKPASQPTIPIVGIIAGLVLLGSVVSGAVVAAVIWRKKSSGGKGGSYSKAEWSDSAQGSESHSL
T1 sequence (P61769 21-119 partner): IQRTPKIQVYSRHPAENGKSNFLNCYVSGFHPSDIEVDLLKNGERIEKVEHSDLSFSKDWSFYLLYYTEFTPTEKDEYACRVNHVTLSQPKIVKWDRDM
Method: HLA-E surface expression was assessed by measuring geometric mean fluorescence intensity (GeoMFI) in RMA-S cells following immunofluorescence staining with an anti-HLA-E antibody (Table 14). Increased GeoMFI was indicative of increased HLA-E surface expression stability following novel peptide exposures (FIG. 3).

NKG2A−/NKG2C+ NK cells [2] = experiment: NKG2A-/NKG2C+ NK cell activation with peptide and RMA-S cells expressing HLA-E; assay type: cell-based; settings: RMA-S cells expressing HLA-E
Method: An antigen processing-defective lymphoma cell line (RMA-S), with a low-level expression of HLA-E, were incubated with the novel peptides to determine the inhibitory strength on NKG2A−/NKG2C+NK cells relative to positive control sequences with differential effects ([…] (SEQ ID NO: 19)/VMAPRTLFL (SEQ ID NO: 18)). The effects of the peptides on NK cell inhibition were determined by measuring four markers of NK cell activation (CD107a, IFNG, TNF, CCL3) in NKG2A−/NKG2C+NK cells (FIGS. 2A-2D). Activation was indicated by an increase in percent cells positive for cell surface markers.

NKG2A+/NKG2C− NK cells = experiment: NK cell activation markers in NKG2A+/NKG2C- NK cells incubated with peptide and K562 expressing HLA-E (inhibition); assay type: cell-based, human; settings: for percentage of CCL3+ NK cells / percentage of CD107a+ NK cells / percentage of IFNG+ NK cells / percentage of TNF+ NK cells: NKG2A+/NKG2C- NK cells, K562/HLA-E
Method in brief: as §1

NKG2A−/NKG2C− NK cells = experiment: NK cell activation markers in control NKG2A-/NKG2C- NK cells incubated with peptide and K562 expressing HLA-E; assay type: cell-based, human
Method in brief: as §1

[3] = K562 expressing HLA-E, CD107a, IFNG, TNF, CCL3

NMPARTVLF [human14, peptide MTREX 490-498 derived from the human proteome]
effect on NKG2A−/NKG2C+ NK cell activation (in words) (NKG2A−/NKG2C+ NK cells [1]; [3]): strong inhibitory and activating effects | percentage of CCL3+ NK cells (NKG2A−/NKG2C+ NK cells [1]; Trial 1): 70.6% | percentage of CD107+ NK cells (NKG2A−/NKG2C+ NK cells [1]; Trial 1): 61.3% | percentage of IFNG+ NK cells (NKG2A−/NKG2C+ NK cells [1]; Trial 1): 45.6% | percentage of TNF+ NK cells (NKG2A−/NKG2C+ NK cells [1]; Trial 1): 31.9% | percentage of CCL3+ NK cells (NKG2A−/NKG2C+ NK cells [1]; Trial 2): 87.5% | percentage of CD107+ NK cells (NKG2A−/NKG2C+ NK cells [1]; Trial 2): 83.1% | percentage of IFNG+ NK cells (NKG2A−/NKG2C+ NK cells [1]; Trial 2): 72.7% | percentage of TNF+ NK cells (NKG2A−/NKG2C+ NK cells [1]; Trial 2): 65.1% | percentage of CCL3+ NK cells (NKG2A−/NKG2C+ NK cells [1]; Trial 3): 82.5% | percentage of CD107+ NK cells (NKG2A−/NKG2C+ NK cells [1]; Trial 3): 85% | percentage of IFNG+ NK cells (NKG2A−/NKG2C+ NK cells [1]; Trial 3): 74.2% | percentage of TNF+ NK cells (NKG2A−/NKG2C+ NK cells [1]; Trial 3): 65% | percentage of CCL3+ NK cells (NKG2A−/NKG2C+ NK cells [1]; Trial 4): 61.1% | percentage of CD107+ NK cells (NKG2A−/NKG2C+ NK cells [1]; Trial 4): 59.1% | percentage of IFNG+ NK cells (NKG2A−/NKG2C+ NK cells [1]; Trial 4): 47.5% | percentage of TNF+ NK cells (NKG2A−/NKG2C+ NK cells [1]; Trial 4): 40% | percentage of CCL3+ NK cells (NKG2A−/NKG2C+ NK cells [1]; Trial 5): 71.8% | percentage of CD107+ NK cells (NKG2A−/NKG2C+ NK cells [1]; Trial 5): 70.5% | percentage of IFNG+ NK cells (NKG2A−/NKG2C+ NK cells [1]; Trial 5): 61.9% | percentage of TNF+ NK cells (NKG2A−/NKG2C+ NK cells [1]; Trial 5): 57.9% | percentage of CCL3+ NK cells (NKG2A−/NKG2C+ NK cells [1]; Trial 6): 52.1% | percentage of CD107+ NK cells (NKG2A−/NKG2C+ NK cells [1]; Trial 6): 44.3% | percentage of IFNG+ NK cells (NKG2A−/NKG2C+ NK cells [1]; Trial 6): 30.5% | percentage of TNF+ NK cells (NKG2A−/NKG2C+ NK cells [1]; Trial 6): 21.8% | HLA-E surface expression stability (GeoMFI) (HLA-E; Trial 1): 1304 GeoMFI | HLA-E surface expression stability (GeoMFI) (HLA-E; Trial 2): 1364 GeoMFI | HLA-E surface expression stability (GeoMFI) (HLA-E; Trial 3): 1005 GeoMFI | HLA-E surface expression stability (GeoMFI) (HLA-E; Trial 4): 1738 GeoMFI | HLA-E surface expression stabilization strength, approximate GeoMFI (HLA-E; approximate value): approximately 1×10^3 GeoMFI | NKG2A−/NKG2C+ NK cell activation relative to positive control peptides (in words) (NKG2A−/NKG2C+ NK cells [2]): decreased NK cell activation relative to the positive control peptides | effect on NKG2A+/NKG2C− NK cell inhibition (in words) (NKG2A+/NKG2C− NK cells; [3]): strong inhibitory | percentage of CCL3+ NK cells (NKG2A+/NKG2C− NK cells; Trial 1): 3.55% | percentage of CD107a+ NK cells (NKG2A+/NKG2C− NK cells; Trial 1): 1.54% | percentage of IFNG+ NK cells (NKG2A+/NKG2C− NK cells; Trial 1): 0.3% | percentage of TNF+ NK cells (NKG2A+/NKG2C− NK cells; Trial 1): 0.12% | percentage of CCL3+ NK cells (NKG2A+/NKG2C− NK cells; Trial 2): 6.94% | percentage of CD107a+ NK cells (NKG2A+/NKG2C− NK cells; Trial 2): 2.38% | percentage of IFNG+ NK cells (NKG2A+/NKG2C− NK cells; Trial 2): 0.79% | percentage of TNF+ NK cells (NKG2A+/NKG2C− NK cells; Trial 2): 0.31% | percentage of CCL3+ NK cells (NKG2A+/NKG2C− NK cells; Trial 3): 6.08% | percentage of CD107a+ NK cells (NKG2A+/NKG2C− NK cells; Trial 3): 3.66% | percentage of IFNG+ NK cells (NKG2A+/NKG2C− NK cells; Trial 3): 2.62% | percentage of TNF+ NK cells (NKG2A+/NKG2C− NK cells; Trial 3): 1.09% | percentage of CCL3+ NK cells (NKG2A+/NKG2C− NK cells; Trial 4): 3.51% | percentage of CD107a+ NK cells (NKG2A+/NKG2C− NK cells; Trial 4): 2.52% | percentage of IFNG+ NK cells (NKG2A+/NKG2C− NK cells; Trial 4): 0.83% | percentage of TNF+ NK cells (NKG2A+/NKG2C− NK cells; Trial 4): 0.55% | percentage of CCL3+ NK cells (NKG2A+/NKG2C− NK cells; Trial 5): 17% | percentage of CD107a+ NK cells (NKG2A+/NKG2C− NK cells; Trial 5): 4.05% | percentage of IFNG+ NK cells (NKG2A+/NKG2C− NK cells; Trial 5): 2.12% | percentage of TNF+ NK cells (NKG2A+/NKG2C− NK cells; Trial 5): 0.89% | percentage of CCL3+ NK cells (NKG2A+/NKG2C− NK cells; Trial 6): 2.66% | percentage of CD107a+ NK cells (NKG2A+/NKG2C− NK cells; Trial 6): 1.16% | percentage of IFNG+ NK cells (NKG2A+/NKG2C− NK cells; Trial 6): 0.43% | percentage of TNF+ NK cells (NKG2A+/NKG2C− NK cells; Trial 6): 0.14% | percentage CCL3+ NK cells (NKG2A−/NKG2C− NK cells; Trial 1): 29.3% | percentage CD107+ NK cells (NKG2A−/NKG2C− NK cells; Trial 1): 20.9% | percentage TNF+ NK cells (NKG2A−/NKG2C− NK cells; Trial 1): 2.61% | percentage of IFNG+ NK cells (NKG2A−/NKG2C− NK cells; Trial 1): 12.1% | percentage CCL3+ NK cells (NKG2A−/NKG2C− NK cells; Trial 2): 54.7% | percentage CD107+ NK cells (NKG2A−/NKG2C− NK cells; Trial 2): 31.4% | percentage TNF+ NK cells (NKG2A−/NKG2C− NK cells; Trial 2): 9.25% | percentage of IFNG+ NK cells (NKG2A−/NKG2C− NK cells; Trial 2): 27.7% | percentage CCL3+ NK cells (NKG2A−/NKG2C− NK cells; Trial 3): 44% | percentage CD107+ NK cells (NKG2A−/NKG2C− NK cells; Trial 3): 43.7% | percentage TNF+ NK cells (NKG2A−/NKG2C− NK cells; Trial 3): 17.1% | percentage of IFNG+ NK cells (NKG2A−/NKG2C− NK cells; Trial 3): 36.5% | percentage CCL3+ NK cells (NKG2A−/NKG2C− NK cells; Trial 4): 29.2% | percentage CD107+ NK cells (NKG2A−/NKG2C− NK cells; Trial 4): 25.6% | percentage TNF+ NK cells (NKG2A−/NKG2C− NK cells; Trial 4): 8.96% | percentage of IFNG+ NK cells (NKG2A−/NKG2C− NK cells; Trial 4): 17.5% | percentage CCL3+ NK cells (NKG2A−/NKG2C− NK cells; Trial 5): 26.9% | percentage CD107+ NK cells (NKG2A−/NKG2C− NK cells; Trial 5): 21.8% | percentage TNF+ NK cells (NKG2A−/NKG2C− NK cells; Trial 5): 7.19% | percentage of IFNG+ NK cells (NKG2A−/NKG2C− NK cells; Trial 5): 16.7% | percentage CCL3+ NK cells (NKG2A−/NKG2C− NK cells; Trial 6): 20.9% | percentage CD107+ NK cells (NKG2A−/NKG2C− NK cells; Trial 6): 16.7% | percentage TNF+ NK cells (NKG2A−/NKG2C− NK cells; Trial 6): 2.97% | percentage of IFNG+ NK cells (NKG2A−/NKG2C− NK cells; Trial 6): 7.36%

— patent publication US20240092835A1, “NOVEL PEPTIDES CAPABLE OF ALTERING NK CELL ACTIVITY” (Massachusetts Institute of Technology, priority 2022, published 2024)
